{
  "source": "patent US3963756A",
  "about": "“Derivatives of 6-methyl-2H-pyran-2,4(3H)-dione” (Zaidan Hojin Biseibutsu Kagaku Kenkyu Kai, priority 1972, dated 1976)",
  "key": {"[1]": {"molecular_target": "T1, Dopamine β-Hydroxylase (Bos taurus, UniProt P15101)", "T1 sequence (P15101 1-610)": "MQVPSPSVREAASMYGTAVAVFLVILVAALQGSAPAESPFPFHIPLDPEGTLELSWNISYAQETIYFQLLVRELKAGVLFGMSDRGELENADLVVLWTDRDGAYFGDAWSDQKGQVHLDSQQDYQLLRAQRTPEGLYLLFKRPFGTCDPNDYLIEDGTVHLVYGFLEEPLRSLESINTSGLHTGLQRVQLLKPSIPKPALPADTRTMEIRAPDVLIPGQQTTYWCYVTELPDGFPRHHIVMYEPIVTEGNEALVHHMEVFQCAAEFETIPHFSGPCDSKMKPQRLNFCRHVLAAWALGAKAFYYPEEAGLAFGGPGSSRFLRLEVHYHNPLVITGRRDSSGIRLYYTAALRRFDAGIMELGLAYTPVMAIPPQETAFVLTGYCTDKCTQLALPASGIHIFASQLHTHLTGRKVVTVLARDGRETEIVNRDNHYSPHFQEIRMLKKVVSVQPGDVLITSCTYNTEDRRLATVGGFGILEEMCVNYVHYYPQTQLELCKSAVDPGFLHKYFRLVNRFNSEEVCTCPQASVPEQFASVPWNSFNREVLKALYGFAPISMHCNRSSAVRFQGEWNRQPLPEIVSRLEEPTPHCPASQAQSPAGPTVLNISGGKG", "assay": "Inhibition of dopamine β-hydroxylase (DH)", "format": "biochemical", "description": "(§1) The new compounds of the present invention have been examined for their biological activities, and their inhibition to tyrosine hydroxylase and dopamine β-hydroxylase are summarized below in Table 2. The details of the test methods used and the close relationship and reliable correlation of biological activities between in vitro and in vivo test results are well documented in the literature, e.g. J. Antibiot. 23: 514 (1970); Biochem. Pharmacol., 19: 35 (1970); and J. Am. Chem. Soc. 93: 1285 (1971). […] The effects of this compound on tyrosine hydroxylase and dopamine β-hydroxylase were also tested by the methods described in the Journal of Antibiotics 23:514 (1970) and Biochem. Pharmacol. 19:35 (1970), respectively.\n(§2) The chemical structure of the products [I], solvent for hydrogenation and solvent for recrystallization are summarised in Table 1, and the yields of the products [I] are also shown in Table 1 together with their melting points, elemental analysis data, Inhibition (%) of tyrosine hydroxylase (TH) and Inhibition (%) to dopamine β-hydroxylase (DH) at different concentrations of the products [I] of 100 mcg/cc and 200 mcg/cc."}, "[2]": {"assay": "Toxicity in mice (LD50; 30-day daily dosing)", "format": "in vivo", "conditions": "mouse, in vivo, ip; mice, intraperitoneal injection"}, "[3]": {"molecular_target": "T2, Tyrosine Hydroxylase (Bos taurus, UniProt P17289)", "T2 sequence (P17289 1-491)": "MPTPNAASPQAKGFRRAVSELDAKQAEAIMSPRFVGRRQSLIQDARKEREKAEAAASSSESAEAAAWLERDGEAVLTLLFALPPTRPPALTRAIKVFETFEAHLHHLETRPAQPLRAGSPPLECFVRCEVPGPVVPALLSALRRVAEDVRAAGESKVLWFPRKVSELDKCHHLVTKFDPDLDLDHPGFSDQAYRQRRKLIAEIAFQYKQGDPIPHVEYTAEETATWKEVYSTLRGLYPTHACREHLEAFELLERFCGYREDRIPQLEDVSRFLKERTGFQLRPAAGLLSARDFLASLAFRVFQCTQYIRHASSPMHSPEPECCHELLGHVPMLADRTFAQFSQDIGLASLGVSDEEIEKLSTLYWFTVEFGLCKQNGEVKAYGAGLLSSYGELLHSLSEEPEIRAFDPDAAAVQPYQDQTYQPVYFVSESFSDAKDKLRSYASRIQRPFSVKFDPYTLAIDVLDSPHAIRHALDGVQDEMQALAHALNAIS", "assay": "Inhibition of tyrosine hydroxylase (TH)", "format": "biochemical", "description": "as §1, §2"}, "[4]": {"system": "rat", "assay": "Blood pressure in rats", "format": "in vivo", "conditions": "for systolic blood pressure lowered to: 6.25 mg/kg i.p.", "experimental": "(§3) Hydroxylation of tyrosine is the rate-limiting step of norepinephrine biosynthesis. Therefore, inhibition of tyrosine hydroxylase results in inhibition of norepinephrine synthesis in vivo which results in lowering the blood pressure. […] Okamoto, of the Medical School, University of Kyoto, Japan, and described in \"Journal of Antibiotics\" 23: 514 (1970).\nWhen 6.25 mg/kg was intraperitoneally injected to a rat of 185 mm. systolic blood pressure and another rat of 188 mm., the blood pressure was then lowered to 115-145 mm. and 138-166 mm. respectively during 1-22 hours after the injection. When […]. was intraperitoneally injected to a rat of 190 mm. systolic blood pressure, the pressure was reduced to 146-162 mm. during 1-22 hours after the injection. […] It caused 20-30% reduction of blood pressure which continued for about 5 days after the last oral administration."}, "[5]": {"system": "mice", "assay": "Toxicity in mice (LD50; 30-day daily dosing)", "format": "in vivo", "conditions": "160, 40 and 10 mg/kg orally or intraperitoneally daily to mice for 30 days"}, "[6]": {"system": "mice and rats", "assay": "Sleeping / sedative effect in mice and rats", "format": "in vivo", "conditions": "injection of 200 mg/kg to mice and rats", "description": "as §3"}, "[7]": {"system": "genetically hypertensive rats", "assay": "Blood pressure in genetically hypertensive rats", "format": "in vivo", "conditions": "genetically hypertensive rats (Okamoto)", "description": "as §3"}, "[8]": {"system": "bacteria and fungi", "conditions": "Chemical Abstracts 50, 980e; cited from earlier work"}, "[9]": {"assay": "Lowering of blood pressure (general statements)", "design": "species or system mammals", "conditions": "in vivo"}, "[10]": {"conditions": "oral daily for three days, 3.1, 6.25, 12.5, 25 mg/kg"}},
  "data": [
    {"compound": "COc1ccccc1CCC(=O)C1C(=O)C=C(C)OC1=O", "note": "(stereo not drawn) [3-(2-methoxyhydrocinnamoyl)-6-methyl-2H-pyran-2,4(3H)-dione] [listing 1 of 2 here]", "values": [
      {"measurement": "IC50", "setting": "[1]", "result": 1910, "unit": "nM"},
      {"measurement": "LD50", "setting": "[2]", "result": 1200, "unit": "mg/kg"}
    ]},
    {"compound": "COc1ccccc1CCC(=O)C1C(=O)C=C(C)OC1=O", "note": "(stereo not drawn) [3-(2-methoxyhydrocinnamoyl)-6-methyl-2H-pyran-2,4(3H)-dione] [listing 2 of 2 here]", "values": [
      {"measurement": "inhibition % to tyrosine hydroxylase", "setting": "[3]; 12.5 mcg/cc", "result": 10, "unit": "%"},
      {"measurement": "inhibition % to tyrosine hydroxylase", "setting": "[3]; 25 mcg/cc", "result": 18, "unit": "%"},
      {"measurement": "inhibition % to tyrosine hydroxylase", "setting": "[3]; 50 mcg/cc", "result": 22, "unit": "%"},
      {"measurement": "inhibition % to tyrosine hydroxylase", "setting": "[3]; 100 mcg/cc", "result": 32, "unit": "%"},
      {"measurement": "duration of blood pressure reduction after the last oral administration", "setting": "[4]; [10]", "result": "about 5 days"},
      {"measurement": "reduction of blood pressure", "setting": "[4]; [10]", "result": "20-30%"},
      {"measurement": "reduction of blood pressure (in words)", "setting": "[4]; [10]", "result": "marked reduction of blood pressure"},
      {"measurement": "systolic blood pressure lowered to", "setting": "[4]; rat of 185 mm systolic, during 1-22 hours after injection", "result": "115-145 mm"},
      {"measurement": "systolic blood pressure lowered to", "setting": "[4]; rat of 188 mm systolic, during 1-22 hours after injection", "result": "138-166 mm"},
      {"measurement": "systolic blood pressure reduced to", "setting": "[4]; rat of 190 mm systolic, 12.5 mm/kg (so in the source) i.p., during 1-22 hours after injection", "result": "146-162 mm"},
      {"measurement": "systolic and diastolic blood pressure", "setting": "[4]; rats, daily injection or daily oral administration, 3.5 mg/kg", "result": "lowered both the systolic and the diastolic blood pressure"},
      {"measurement": "usual toxic signs", "setting": "[5]", "result": "none of the usual toxic signs appeared except a decrease in the blood pressure"},
      {"measurement": "sleeping and sedative effect", "setting": "[6]", "result": "did not cause sleeping and a sedative effect was not recognized"},
      {"measurement": "hypotensive effect", "setting": "[7]", "result": "even more markedly"}
    ]},
    {"compound": "CC1=CC(=O)C(C(=O)CCc2ccccc2)C(=O)O1", "note": "(stereo not drawn) [3-hydrocinnamoyl-6-methyl-2H-pyran-2,4(3H)-dione, reference compound]", "values": [
      {"measurement": "inhibition at 100 µg/mL", "setting": "[3]; 100 mcg/cc", "result": 49.7, "unit": "%"},
      {"measurement": "inhibition at 200 µg/mL", "setting": "[3]; 200 mcg/cc", "result": 52.8, "unit": "%"},
      {"measurement": "inhibition to DH", "setting": "[1]; 100 mcg/cc", "result": 100, "unit": "%"},
      {"measurement": "antibacterial and antifungal activity", "setting": "[8]", "result": "weak antibacterial and antifungal activity"},
      {"measurement": "blood pressure reducing (hypotensive) activity, in words", "setting": "[9]", "result": "active in reducing blood pressure"}
    ]}
  ]
}
